What was measured:
[1] = test system: patients with relapsed/refractory T-cell lymphoma; experiment: Safety and tolerability of tenalisib plus romidepsin; assay type: in vivo, human; settings: for Patients with three or more drug interruptions: during the combination treatment; for Patients with drug interruptions / Patients with dose reductions: overall, during combination treatment; for Patients with drug interruptions: PTCL and CTCL groups
[2] = test system: peripheral T-cell lymphoma (PTCL); settings: PTCL patients; cited from earlier work
patients = settings: cited from earlier work
[3] = Plasma pharmacokinetics of tenalisib, IN0385 and romidepsin; assay type: in vivo, human; settings: oral, all three cohorts
CYP3A4 = settings: also substrates for CYP3A4; ref not given; cited from earlier work

## C/C=C1\NC(=O)[C@H]2CSSCC/C=C/[C@H](CC(=O)N[C@H](C(C)C)C(=O)N2)OC(=O)[C@H](C(C)C)NC1=O [romidepsin, reference compound]
[1]
  Patients with three or more drug interruptions: 24.2%
  Patients with drug interruptions: 63.6%
  Patients with dose reductions: 33.3%
[1]; intravenous, days 1, 8, 15 of 28-day cycle, with tenalisib
  MTD/RP2D dose (recommended dose for dose expansion) in the combination: 14 mg/m^2
[2]
  CR rate with monotherapy: 14%
patients
  Discontinuation rates due to adverse events, single agent studies: 19-28%

## CC[C@H](Nc1ncnc2[nH]cnc12)c1oc2ccccc2c(=O)c1-c1cccc(F)c1 [tenalisib]
[1]
  Patients with three or more drug interruptions: 12.1%
  Patients with drug interruptions: 60.6%
  Patients with dose reductions: 27.3%
[1]; orally twice daily (BID), with romidepsin
  MTD/RP2D dose (recommended dose for dose expansion) in the combination: 800 mg
[3]
  Absorption: rapidly absorbed
[2]
  CR rate with monotherapy: 20.0%
CYP3A4
  CYP3A4 inhibition: moderate inhibitors

From publication PMC10772524 (Haematologica, 2023)
